# Where “and” joins values, the source holds several entries; their conditions need not be identical. Equal values may be shown once.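 These data come from cells grown in 96-well plates and exposed to compound for 48 hours at five concentrations. GI50 = concentration required for 50% inhibition of growth.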 Calls of active or inactive are those of the source. No stated cut-off is given here; in the data, active = GI50 up to about 1.1 µM and inactive = higher.
# What was measured:
# Experiment in all cases: NCI anticancer screen, dose series, 48 h
# [1] = tested on: HCT-15
# [2] = tested on: OVCAR-3
# [3] = tested on: NCI/ADR-RES
# [4] = tested on: CCRF-CEM
# [5] = tested on: M14
# [6] = tested on: LOX IMVI
# [7] = tested on: OVCAR-8
# [8] = tested on: Hs-578T
# [9] = tested on: SK-MEL-28
# [10] = tested on: K562
# [11] = tested on: HOP-62
# [12] = tested on: HOP-92
# [13] = tested on: MDA-MB-435
# [14] = tested on: MDA-N
# [15] = tested on: HT-29
# [16] = tested on: SK-OV-3
# [17] = tested on: HCT-116
# [18] = tested on: UO-31
# [19] = tested on: A498
# [20] = tested on: SR
Compound,GI50 [1],GI50 [2],GI50 [3],GI50 [4],GI50 [5],GI50 [6],GI50 [7],GI50 [8],GI50 [9],GI50 [10],GI50 [11],GI50 [12],GI50 [13],GI50 [14],GI50 [15],GI50 [16],GI50 [17],GI50 [18],GI50 [19],GI50 [20]
C#CCn1c(=O)c(I)cn(/C(=C/C(=O)OCC)C(=O)OCC)c1=O,2.74 µM,1.78 µM (inactive),18.9 µM (inactive),3.53 µM (inactive),1.78 µM (inactive),4.95 µM (inactive),3.56 µM (inactive),15 µM (inactive),8 µM (inactive),0.659 µM (active),17.5 µM (inactive),1.75 µM (inactive),7.6 µM (inactive),3.37 µM (inactive),12.6 µM (inactive),17.9 µM (inactive),1.85 µM (inactive),1.53 µM (inactive),19.1 µM (inactive),
NS(=O)(=O)c1ccc(NC(NC(=O)C(C(F)(F)F)C(F)(F)F)(C(F)(F)F)C(F)(F)F)cc1,> 100 µM,> 100 µM (inactive),> 100 µM (inactive),> 100 µM (inactive),> 100 µM (inactive),> 100 µM (inactive),> 100 µM (inactive),> 100 µM (inactive),> 100 µM (inactive),> 100 µM (inactive),> 100 µM (inactive),> 100 µM (inactive),> 100 µM (inactive),> 100 µM (inactive),> 100 µM (inactive),> 100 µM (inactive),> 100 µM (inactive),> 100 µM (inactive),,> 100 µM (inactive)
COc1ccc(C2Oc3c(OC)cc(CCCO)cc3C2CO)cc1OC (configuration not stated),> 100 µM,> 100 µM (inactive),69 µM (inactive),,> 100 µM (inactive),,> 100 µM (inactive) and 89.3 µM (inactive),> 100 µM (inactive),74 µM (inactive),20.6 µM (inactive) and 38.5 µM (inactive),> 100 µM (inactive),56.5 µM (inactive),70 µM (inactive) and 93.5 µM (inactive),93.1 µM (inactive) and 71.4 µM (inactive),> 100 µM (inactive),> 100 µM (inactive),> 100 µM (inactive),,,
CCOC(=O)C1(C(=O)OCC)[C@H](c2ccccc2)C2=NO[C@@H]3CCC[C@H]1[C@H]23,43.6 µM,25.1 µM (inactive),39.4 µM (inactive),35.2 µM (inactive),36 µM (inactive),> 100 µM (inactive),75.3 µM (inactive),> 100 µM (inactive),> 100 µM (inactive),21.3 µM (inactive),20.5 µM (inactive),54 µM (inactive),21.4 µM (inactive),31.2 µM (inactive),35.8 µM (inactive),30.1 µM (inactive),54.1 µM (inactive),57.4 µM (inactive),,30.8 µM (inactive)
CN(C)c1ccc(-c2c(C#N)c(O)n(NS(=O)(=O)c3ccccc3)c(=O)c2C#N)cc1,> 100 µM,,> 100 µM (inactive),> 100 µM (inactive),0.643 µM (active),> 100 µM (inactive),> 100 µM (inactive),> 100 µM (inactive),> 100 µM (inactive),> 100 µM (inactive),> 100 µM (inactive),> 100 µM (inactive),> 100 µM (inactive),> 100 µM (inactive),> 100 µM (inactive),0.377 µM (active),> 100 µM (inactive),,> 100 µM (inactive),
CCOC(=O)C1(C/C=C/CBr)Cc2ccccc2C1=O (configuration not stated),2.24 µM,2.17 µM (inactive),1.98 µM (inactive),0.796 µM (active),2.83 µM (inactive),1.6 µM (inactive),2.39 µM (inactive),5.53 µM (inactive),6.93 µM (inactive),1.87 µM (inactive),4.03 µM (inactive),,1.72 µM (inactive),2.2 µM (inactive),2.79 µM (inactive),8.69 µM (inactive),3.71 µM (inactive),1.96 µM (inactive),17.9 µM (inactive),
COc1ccc2nc3cc(Cl)ccc3c(NCCCNCc3cc(OC)c(OC)c(OC)c3)c2c1,1.54 µM,1.83 µM (inactive),2.08 µM (inactive),0.865 µM (active),1.65 µM (inactive),1.54 µM (inactive),1.77 µM (inactive),2.95 µM (inactive),1.67 µM (inactive),0.465 µM (active),1.32 µM (inactive),,1.82 µM (inactive),1.82 µM (inactive),1.01 µM (active),1.81 µM (inactive),1.24 µM (inactive),1.65 µM (inactive),,1.2 µM (inactive)
COC(=O)c1c(O)ccc2[nH]c3c(O)c4ccccc4cc3c12,20.5 µM,15.9 µM (inactive),29.9 µM (inactive),20.8 µM (inactive),30.2 µM (inactive),,20.2 µM (inactive),23.7 µM (inactive),35 µM (inactive),47 µM (inactive),22.4 µM (inactive),29.6 µM (inactive),27.9 µM (inactive),28.4 µM (inactive),33.3 µM (inactive),33.6 µM (inactive),16.7 µM (inactive),26.8 µM (inactive),41.4 µM (inactive),43.5 µM (inactive)
CC(=O)Oc1c2oc3ccc(Cl)cc3c(=O)c2c(O)c2ccsc12,> 100 µM,> 100 µM (inactive),> 100 µM (inactive),86.1 µM (inactive),> 100 µM (inactive),> 100 µM (inactive),> 100 µM (inactive),33.3 µM (inactive),> 100 µM (inactive),60.7 µM (inactive),> 100 µM (inactive),> 100 µM (inactive),> 100 µM (inactive),> 100 µM (inactive),> 100 µM (inactive),> 100 µM (inactive),> 100 µM (inactive),> 100 µM (inactive),> 100 µM (inactive),
COc1ccc(NC2Oc3cc4c(cc3C(c3cccc(OC)c3OC)C2C)OCO4)cc1 (configuration not stated),2.96 µM,5.35 µM (inactive),,3.61 µM (inactive),6.04 µM (inactive),11.4 µM (inactive),5.13 µM (inactive),7.96 µM (inactive),16.3 µM (inactive),4.21 µM (inactive),32.9 µM (inactive),3.32 µM (inactive),10 µM (inactive),7.89 µM (inactive),6.85 µM (inactive),70 µM (inactive),3.83 µM (inactive),5.85 µM (inactive),10.9 µM (inactive),2.04 µM (inactive)
Cc1ccccc1N(C)S(=O)(=O)c1ccccc1[N+](=O)[O-],57.9 µM,46.3 µM (inactive),25.1 µM (inactive),35.8 µM (inactive),20.8 µM (inactive),55.3 µM (inactive),75 µM (inactive),66.1 µM (inactive),54.1 µM (inactive),28.7 µM (inactive),48.2 µM (inactive),,33.4 µM (inactive),45.5 µM (inactive),32.2 µM (inactive),53.6 µM (inactive),41.1 µM (inactive),34.3 µM (inactive),,36.6 µM (inactive)
O=C(N/N=C\c1cccc2ccccc12)Nc1cccc2ccccc12,5.73 µM,,> 100 µM (inactive),18.2 µM (inactive),28.8 µM (inactive),22.9 µM (inactive),32.4 µM (inactive),43 µM (inactive),32.9 µM (inactive),3.17 µM (inactive),7.11 µM (inactive),,3.95 µM (inactive),3.84 µM (inactive),4.17 µM (inactive),,13.9 µM (inactive),76.9 µM (inactive),15.7 µM (inactive),3.29 µM (inactive)
Fc1cccc(F)c1C1SCc2nc3cc(Cl)ccc3n21 (configuration not stated),28.6 µM,46 µM (inactive),24.2 µM (inactive),25.6 µM (inactive),31 µM (inactive),18.5 µM (inactive),58.7 µM (inactive),> 44.7 µM (inactive),50.8 µM (inactive),35.1 µM (inactive),> 100 µM (inactive),36.6 µM (inactive),33 µM (inactive),32.8 µM (inactive),15.2 µM (inactive),80.2 µM (inactive),18.5 µM (inactive),19.2 µM (inactive),,17.8 µM (inactive)
N#CC1Nc2ccccc2[C@@H](O)C1O (some centres not stated),> 100 µM,> 100 µM (inactive),> 100 µM (inactive),> 100 µM (inactive),> 100 µM (inactive),> 100 µM (inactive),> 100 µM (inactive),> 100 µM (inactive),> 100 µM (inactive),> 100 µM (inactive),> 100 µM (inactive),> 100 µM (inactive),> 100 µM (inactive),> 100 µM (inactive),> 100 µM (inactive),> 100 µM (inactive),> 100 µM (inactive),,,> 100 µM (inactive)
C/C=C1/C[C@@H](C)[C@@](C)(O)C(=O)OCC2=CC[N+]3([O-])CC[C@@H](OC1=O)[C@@H]23 (some centres not stated) [SENECIONINE N-OXIDE],> 100 µM,> 100 µM (inactive),> 100 µM (inactive),> 100 µM (inactive),> 100 µM (inactive),> 100 µM (inactive),> 100 µM (inactive),> 100 µM (inactive),> 100 µM (inactive),0.0482 µM (active),,> 100 µM (inactive),> 100 µM (inactive),> 100 µM (inactive),> 100 µM (inactive),> 100 µM (inactive),> 100 µM (inactive),> 100 µM (inactive),> 100 µM (inactive),

# — ChEMBL document CHEMBL1201862, “PubChem BioAssay data set” (2004)
